Results: ChEMBL document CHEMBL1125127 (J Med Chem, 1990)

How the values were obtained:
[1] = target: Beta-2 adrenergic receptor (Canis lupus familiaris, UniProt P54833); assay: Beta2-receptor selectivity in canine lung tissue in anesthetized dogs; type: functional
Canis familiaris [2] = assay: Concentration that causes a 20% increase in APD95 (action potential duration at 95% repolarization) from control value in anesthetized dogs; type: functional, Canis lupus familiaris
Canis familiaris [3] = assay: Maximum change in […] from control value in anesthetized dogs; 10 uM.; type: functional, Canis lupus familiaris
Canis familiaris [4] = assay: Percent change in FRP from control at active dose 1.0-10 mg/kg administered intravenously
Canis familiaris [5] = assay: Percent change in heart rate (HR) from control at active dose 1.0-10 mg/kg administered intravenously in conscious dogs
Canis familiaris [6] = assay: Percent change in blood pressure (BP) from control at active dose 1.0-10 mg/kg administered intravenously in anesthetized dogs
Canis familiaris [7] = assay: Concentration at which maximum change in […] was observed from control value in anesthetized dogs; The maximum observed change APD95 from control value and concentration at 30 uM when this occurred; type: functional, Canis lupus familiaris
Canis familiaris [8] = assay: Percent change in blood pressure (BP) from control at active dose 0.1-3.0 mg/kg administered intraperitoneally in anesthetized dogs; type: functional, Canis lupus familiaris
Canis familiaris [9] = assay: Percent change in FRP from control at active dose 0.1-3.0 mg/kg administered intravenously
Canis familiaris [10] = assay: Percent change in heart rate (HR) from control at active dose 0.1-3.0 mg/kg administered intravenously in conscious dogs
Canis familiaris [11] = assay: Concentration at which maximum change in […] was observed from control value in anesthetized dogs; The maximum observed change APD95 from control value and concentration at 100 uM when this occurred; type: functional, Canis lupus familiaris
Canis familiaris [12] = assay: Percent change in blood pressure (BP) from control at active dose 1.0-10 mg/kg administered intraperitoneally in anesthetized dogs; type: functional, Canis lupus familiaris
Canis familiaris [13] = assay: Percent change in blood pressure (BP) from control at active dose 30 mg/kg administered intraperitoneally in anesthetized dogs; type: functional, Canis lupus familiaris; conditions: route intraperitoneal
Canis familiaris [14] = assay: Percent change in heart rate (HR) from control at active dose 1.0-10 mg/kg administered intraperitoneally in anesthetized dogs; type: functional, Canis lupus familiaris
Canis familiaris [15] = assay: Percent change in FRP from control at active dose 1.0-10 mg/kg administered intraperitoneally; type: functional, Canis lupus familiaris
[16] = Ratio of number of active animals to number of treated at dose 30 mg/kg administered intraperitoneally in anesthetized dogs; No of animals tested=2; type: functional; conditions: route intraperitoneal
[17] = (§1) Percent change in FRP from control at active dose 30 mg/kg administered intraperitoneally in anesthetized dogs; type: functional; conditions: route intraperitoneal
[18] = target: Beta adrenergic receptor (Canis familiaris)
Canis familiaris [19] = assay: Percent change in heart rate (HR) from control at active dose 30 mg/kg administered intraduodenally; conditions: route intraduodenal
Canis familiaris [20] = assay: Percent change in FRP from control at active dose 10 mg/kg administered intraperitoneally in anesthetized dogs; type: functional, Canis lupus familiaris; conditions: route intraperitoneal
Canis familiaris [21] = assay: Percent change in blood pressure (BP) from control at active dose 0.1-10 mg/kg administered intraperitoneally in anesthetized dogs; type: functional, Canis lupus familiaris
Canis familiaris [22] = assay: Percent change in blood pressure (BP) from control at active dose 10 mg/kg administered intraperitoneally in anesthetized dogs; type: functional, Canis lupus familiaris; conditions: route intraperitoneal
Canis familiaris [23] = assay: Percent change in heart rate (HR) from control at active dose 0.1-10 mg/kg administered intraperitoneally in anesthetized dogs; type: functional, Canis lupus familiaris
Canis familiaris [24] = assay: Percent change in FRP from control at active dose 0.1-10 mg/kg administered intravenously
Canis familiaris [25] = assay: Percent change in heart rate (HR) from control at active dose 10 mg/kg administered intraduodenally; conditions: route intraduodenal
Canis familiaris [26] = assay: Percent change in blood pressure (BP) from control at active dose 22-30 mg/kg administered intraperitoneally in anesthetized dogs; type: functional, Canis lupus familiaris
[27] = Ratio of number of active animals to number of treated at dose 22-30 mg/kg administered intraperitoneally in anesthetized dogs; No of animals tested=2; type: functional
Canis familiaris [28] = assay: Percent change in heart rate (HR) from control at active dose 22-30 mg/kg administered intraduodenally
Canis familiaris [29] = assay: Percent change in FRP from control at active dose 22-30 mg/kg administered intraduodenally in anesthetized dogs
Canis familiaris [30] = assay: Percent change in heart rate (HR) from control at active dose 30 mg/kg administered intraperitoneally; type: functional, Canis lupus familiaris; conditions: route intraperitoneal
Canis familiaris [31] = assay: as §1; type: functional, Canis lupus familiaris; conditions: route intraperitoneal
Canis familiaris [32] = assay: Percent change in blood pressure (BP) from control at active dose 0.3-3 mg/kg administered intraperitoneally in anesthetized dogs; type: functional, Canis lupus familiaris
Canis familiaris [33] = assay: Percent change in FRP from control at active dose 0.3-3 mg/kg administered intravenously
Canis familiaris [34] = assay: Percent change in heart rate (HR) from control at active dose 1.0-10 mg/kg administered intraduodenally
Canis familiaris [35] = assay: Percent change in FRP from control at active dose 1.0-10 mg/kg administered intraduodenally in anesthetized dogs
Canis familiaris [36] = assay: Percent change in heart rate (HR) from control at active dose 0.3-3 mg/kg administered intravenously in conscious dogs

Chain of Beta-2 adrenergic receptor (P54833 whole entry): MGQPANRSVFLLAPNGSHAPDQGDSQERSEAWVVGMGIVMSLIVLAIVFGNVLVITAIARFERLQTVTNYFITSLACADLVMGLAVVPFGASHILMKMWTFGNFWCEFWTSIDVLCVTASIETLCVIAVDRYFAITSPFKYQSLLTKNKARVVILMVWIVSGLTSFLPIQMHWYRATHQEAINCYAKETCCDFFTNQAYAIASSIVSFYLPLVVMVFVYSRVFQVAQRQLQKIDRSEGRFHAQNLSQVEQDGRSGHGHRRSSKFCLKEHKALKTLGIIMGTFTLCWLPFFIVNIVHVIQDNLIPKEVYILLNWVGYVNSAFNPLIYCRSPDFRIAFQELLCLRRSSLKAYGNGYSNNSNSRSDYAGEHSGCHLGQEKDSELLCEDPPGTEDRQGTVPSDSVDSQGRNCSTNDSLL

Which IC50 [1] does the source give for `Cc1cccc(OCC(O)CNCCOc2ccc(-n3ccnc3)cc2)c1` (stereo unspecified) here?
Its IC50 is 0.51 µM.

What about the “C20 APD95” value (Canis familiaris [2]) of the same compound?
The value was 10 µM.

What about the Max delta (Canis familiaris [3]) of the same compound?
The Max delta was 35%.

And the Change (Canis familiaris [4])?
Its Change is 9%.

And the Change (Canis familiaris [5])?
The Change was -12%.

What about the Change (Canis familiaris [6]) of the same compound?
The Change was -4%.

What does the source list for `CS(=O)(=O)Nc1ccc(OC[C@@H](O)CNCCOc2ccc(-n3ccnc3)cc2)cc1` (stereo in doubt; (S)-1) [ERSENTILIDE]?
IC50 [1]: 50 µM; C20 APD95 (Canis familiaris [2]): 1.8 µM; Max delta (Canis familiaris [7]): 73%; Change (Canis familiaris [8]): 4%; Change (Canis familiaris [9]): 5%; Change (Canis familiaris [10]): -2%

With `O=C(NCCNCC(O)COc1cccc2ccccc12)c1ccc(-n2ccnc2)cc1` (stereo unspecified) as the compound, how does the C20 (Canis familiaris [2]) read?
The C20 was 1.8 µM.

And the Max delta (Canis familiaris [11])?
Its Max delta is 57%.

What about the Change (Canis familiaris [12]) of the same compound?
The Change was -5%.

What about the Change (Canis familiaris [13]) of the same compound?
The Change was 16%.

And the Change (Canis familiaris [14])?
The Change was 24%.

What about the Change (Canis familiaris [15]) of the same compound?
The Change was 6%.

And the Ratio [16]?
Its Ratio is 2.

What about the Change [17] of the same compound?
The Change was 13%.

And the IC50 [18]?
The IC50 was 0.42 µM.

What about the Change (Canis familiaris [19]) of the same compound?
Its Change is -15%.

For `CS(=O)(=O)Nc1ccc(C(O)CNCCOc2ccc(-n3ccnc3)cc2)cc1` (stereo unspecified), which IC50 [1] is on record?
Its IC50 is 5.7 µM.

And the Change (Canis familiaris [20])?
The Change was 24%.

And the “C20 APD95” value (Canis familiaris [2])?
The value was <1 µM.

And the Max delta (Canis familiaris [11])?
Its Max delta is 155%.

What about the Change (Canis familiaris [21]) of the same compound?
The Change was -4%.

And the Change (Canis familiaris [22])?
The Change was 17%.

And the Change (Canis familiaris [23])?
Its Change is 1%.

And the Change (Canis familiaris [24])?
Its Change is 15%.

What about the Change (Canis familiaris [25]) of the same compound?
Its Change is -18%.

With `COc1ccc(OCC(O)CNCCNC(=O)c2ccc(-n3ccnc3)cc2)cc1` (stereo unspecified) as the compound, how does the C20 (Canis familiaris [2]) read?
Its C20 is 6.6 µM.

And the Max delta (Canis familiaris [7])?
The Max delta was 47%.

And the Change (Canis familiaris [26])?
The Change was -1%.

And the No. effective [27]?
Its No. effective is 2.

And the IC50 [18]?
Its IC50 is 61.4 µM.

What about the Change (Canis familiaris [28]) of the same compound?
The Change was -35%.

What about the Change (Canis familiaris [29]) of the same compound?
The Change was 24%.

What does the source list for `CS(=O)(=O)Nc1ccc(N2CCN(CC(O)CON=C(C3CC3)C3CC3)CC2)cc1` (stereo unspecified)?
Change (Canis familiaris [30]): -17%; C20 (Canis familiaris [2]): 8 µM; Max delta (Canis familiaris [7]): 45%; Change (Canis familiaris [31]): 15%; Change (Canis familiaris [12]): 8%; Change (Canis familiaris [13]): 17%; Change (Canis familiaris [14]): 9%; Change (Canis familiaris [15]): 6%; Ratio [16]: 1

With `CS(=O)(=O)Nc1ccc(OC[C@@H](O)CNCCOc2ccc(-n3ccnc3)cc2)cc1` (stereo in doubt; 1) [ERSENTILIDE] as the compound, how does the IC50 [1] read?
The IC50 was 46.5 µM.

What about the “C20 APD95” value (Canis familiaris [2]) of the same compound?
Its value is 0.4 µM.

What about the Max delta (Canis familiaris [7]) of the same compound?
Its Max delta is 92%.

And the Change (Canis familiaris [32])?
The Change was 3%.

What about the Change (Canis familiaris [12]) of the same compound?
Its Change is 3%.

And the Change (Canis familiaris [33])?
The Change was 13%.

What about the Change (Canis familiaris [34]) of the same compound?
The Change was -16%.

What about the Change (Canis familiaris [35]) of the same compound?
The Change was 27%.

What about the Change (Canis familiaris [36]) of the same compound?
Its Change is 9%.
